Test results from the supplement of paper PMC10307832.

Columns and labels:
Test in all cases: relative viability (nuclei count vs DMSO), 5 days (fraction); higher = more cells survive
A549 = system: A549
Method in brief: (§1)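 Values are medians from duplicate plates. Each reflects relative viability, defined as the nuclei count of treated wells over that of vehicle wells. Lung cancer cell lines in 1536-well plates were pin-tool dosed one day after seeding with one drug alone or with a fixed anchor-drug dose plus five library-drug doses (not always all listed) in √10 steps, then fixed, stained and imaged at 4× after 5 days.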

Calu-6 = system: Calu-6
Method in brief: as §1

EBC-1 = system: EBC-1
Method in brief: as §1

HCC-78 = system: HCC-78
Method in brief: as §1

IA-LM = system: IA-LM
Method in brief: as §1

NCI-H1299 = system: NCI-H1299
Method in brief: as §1

NCI-H1623 = system: NCI-H1623
Method in brief: as §1

NCI-H1703 = system: NCI-H1703
Method in brief: as §1

NCI-H2009 = system: NCI-H2009
Method in brief: as §1

NCI-H2342 = system: NCI-H2342
Method in brief: as §1

NCI-H358 = system: NCI-H358
Method in brief: as §1

NCI-H460 = system: NCI-H460
Method in brief: as §1

NCI-H661 = system: NCI-H661
Method in brief: as §1

Cc1sc2c(c1C)C(c1ccc(Cl)cc1)=N[C@@H](CC(=O)OC(C)(C)C)c1nnc(C)n1-2 [JQ1] + COc1cc2c(Oc3ccc(NC(=O)C4(C(=O)Nc5ccc(F)cc5)CC4)cc3F)ccnc2cc1OCCCN1CCOCC1 [Foretinib] (partner 0.25 µM)
relative viability (A549; first compound 0.04 µM): 0.881
relative viability (A549; first compound 0.1265 µM): 0.76
relative viability (A549; first compound 0.4 µM): 0.878
relative viability (A549; first compound 1.265 µM): 0.32
relative viability (A549; first compound 4 µM): 0.194
relative viability (Calu-6; first compound 0.04 µM): 0.848
relative viability (Calu-6; first compound 0.1265 µM): 0.79
relative viability (Calu-6; first compound 0.4 µM): 0.756
relative viability (Calu-6; first compound 1.265 µM): 0.478
relative viability (Calu-6; first compound 4 µM): 0.406
relative viability (EBC-1; first compound 0.04 µM): 0.098
relative viability (EBC-1; first compound 0.1265 µM): 0.0891
relative viability (EBC-1; first compound 0.4 µM): 0.0572
relative viability (EBC-1; first compound 1.265 µM): 0.0617
relative viability (EBC-1; first compound 4 µM): 0.0624
relative viability (HCC-78; first compound 0.04 µM): 0.557
relative viability (HCC-78; first compound 0.1265 µM): 0.506
relative viability (HCC-78; first compound 0.4 µM): 0.495
relative viability (HCC-78; first compound 1.265 µM): 0.509
relative viability (HCC-78; first compound 4 µM): 0.453
relative viability (IA-LM; first compound 0.04 µM): 0.943
relative viability (IA-LM; first compound 0.1265 µM): 0.645
relative viability (IA-LM; first compound 0.4 µM): 0.224
relative viability (IA-LM; first compound 1.265 µM): 0.0743
relative viability (IA-LM; first compound 4 µM): 0.0831
relative viability (NCI-H1299; first compound 0.04 µM): 1.03
relative viability (NCI-H1299; first compound 0.1265 µM): 0.947
relative viability (NCI-H1299; first compound 0.4 µM): 0.819
relative viability (NCI-H1299; first compound 1.265 µM): 0.558
relative viability (NCI-H1299; first compound 4 µM): 0.34
relative viability (NCI-H1623; first compound 0.04 µM): 0.878
relative viability (NCI-H1623; first compound 0.1265 µM): 0.809
relative viability (NCI-H1623; first compound 0.4 µM): 0.716
relative viability (NCI-H1623; first compound 1.265 µM): 0.496
relative viability (NCI-H1623; first compound 4 µM): 0.441
relative viability (NCI-H1703; first compound 0.04 µM): 0.298
relative viability (NCI-H1703; first compound 0.1265 µM): 0.284
relative viability (NCI-H1703; first compound 0.4 µM): 0.313
relative viability (NCI-H1703; first compound 1.265 µM): 0.318
relative viability (NCI-H1703; first compound 4 µM): 0.332
relative viability (NCI-H2009; first compound 0.04 µM): 1.06
relative viability (NCI-H2009; first compound 0.1265 µM): 0.801
relative viability (NCI-H2009; first compound 0.4 µM): 0.786
relative viability (NCI-H2009; first compound 1.265 µM): 0.413
relative viability (NCI-H2009; first compound 4 µM): 0.352
relative viability (NCI-H2342; first compound 0.04 µM): 1.09
relative viability (NCI-H2342; first compound 0.1265 µM): 0.843
relative viability (NCI-H2342; first compound 0.4 µM): 1.08
relative viability (NCI-H2342; first compound 1.265 µM): 0.91
relative viability (NCI-H2342; first compound 4 µM): 0.824
relative viability (NCI-H358; first compound 0.04 µM): 0.686
relative viability (NCI-H358; first compound 0.1265 µM): 0.83
relative viability (NCI-H358; first compound 0.4 µM): 0.685
relative viability (NCI-H358; first compound 1.265 µM): 0.259
relative viability (NCI-H358; first compound 4 µM): 0.309
relative viability (NCI-H460; first compound 0.04 µM): 0.901
relative viability (NCI-H460; first compound 0.1265 µM): 0.932
relative viability (NCI-H460; first compound 0.4 µM): 0.628
relative viability (NCI-H460; first compound 1.265 µM): 0.12
relative viability (NCI-H460; first compound 4 µM): 0.112
relative viability (NCI-H661; first compound 0.04 µM): 1.04
relative viability (NCI-H661; first compound 0.1265 µM): 0.945
relative viability (NCI-H661; first compound 0.4 µM): 1.03
relative viability (NCI-H661; first compound 1.265 µM): 0.7
relative viability (NCI-H661; first compound 4 µM): 0.668

CC(=O)O[C@@]12CO[C@@H]1C[C@H](O)[C@@]1(C)C(=O)[C@H](O)C3=C(C)[C@@H](OC(=O)[C@H](O)[C@@H](NC(=O)OC(C)(C)C)c4ccccc4)C[C@@](O)([C@@H](OC(=O)c4ccccc4)[C@H]21)C3(C)C [Docetaxel] + COc1cc2c(Oc3ccc(NC(=O)C4(C(=O)Nc5ccc(F)cc5)CC4)cc3F)ccnc2cc1OCCCN1CCOCC1 [Foretinib] (partner 0.25 µM)
relative viability (A549; first compound 0.0002 µM): 0.957
relative viability (A549; first compound 0.000632 µM): 0.795
relative viability (A549; first compound 0.002 µM): 0.0591
relative viability (A549; first compound 0.006325 µM): 0.0413
relative viability (A549; first compound 0.02 µM): 0.0241
relative viability (Calu-6; first compound 0.0002 µM): 0.897
relative viability (Calu-6; first compound 0.000632 µM): 0.627
relative viability (Calu-6; first compound 0.002 µM): 0.165
relative viability (Calu-6; first compound 0.006325 µM): 0.081
relative viability (Calu-6; first compound 0.02 µM): 0.0747
relative viability (EBC-1; first compound 0.0002 µM): 0.0936
relative viability (EBC-1; first compound 0.000632 µM): 0.0902
relative viability (EBC-1; first compound 0.002 µM): 0.0988
relative viability (EBC-1; first compound 0.006325 µM): 0.0924
relative viability (EBC-1; first compound 0.02 µM): 0.09
relative viability (HCC-78; first compound 0.0002 µM): 0.634
relative viability (HCC-78; first compound 0.000632 µM): 0.493
relative viability (HCC-78; first compound 0.002 µM): 0.461
relative viability (HCC-78; first compound 0.006325 µM): 0.42
relative viability (HCC-78; first compound 0.02 µM): 0.34
relative viability (IA-LM; first compound 0.0002 µM): 1.05
relative viability (IA-LM; first compound 0.000632 µM): 0.386
relative viability (IA-LM; first compound 0.002 µM): 0.0546
relative viability (IA-LM; first compound 0.006325 µM): 0.0457
relative viability (IA-LM; first compound 0.02 µM): 0.0491
relative viability (NCI-H1299; first compound 0.0002 µM): 1.1
relative viability (NCI-H1299; first compound 0.000632 µM): 1.14
relative viability (NCI-H1299; first compound 0.002 µM): 1
relative viability (NCI-H1299; first compound 0.006325 µM): 0.62
relative viability (NCI-H1299; first compound 0.02 µM): 0.295
relative viability (NCI-H1623; first compound 0.0002 µM): 0.869
relative viability (NCI-H1623; first compound 0.000632 µM): 0.834
relative viability (NCI-H1623; first compound 0.002 µM): 0.584
relative viability (NCI-H1623; first compound 0.006325 µM): 0.427
relative viability (NCI-H1623; first compound 0.02 µM): 0.284
relative viability (NCI-H1703; first compound 0.000632 µM): 0.351
relative viability (NCI-H1703; first compound 0.002 µM): 0.341
relative viability (NCI-H1703; first compound 0.006325 µM): 0.179
relative viability (NCI-H1703; first compound 0.02 µM): 0.154
relative viability (NCI-H2009; first compound 0.0002 µM): 1.18
relative viability (NCI-H2009; first compound 0.000632 µM): 1.26
relative viability (NCI-H2009; first compound 0.002 µM): 0.952
relative viability (NCI-H2009; first compound 0.006325 µM): 0.467
relative viability (NCI-H2009; first compound 0.02 µM): 0.304
relative viability (NCI-H2342; first compound 0.0002 µM): 1.17
relative viability (NCI-H2342; first compound 0.000632 µM): 0.948
relative viability (NCI-H2342; first compound 0.002 µM): 0.638
relative viability (NCI-H2342; first compound 0.006325 µM): 0.661
relative viability (NCI-H2342; first compound 0.02 µM): 0.502
relative viability (NCI-H358; first compound 0.0002 µM): 0.66
relative viability (NCI-H358; first compound 0.000632 µM): 0.217
relative viability (NCI-H358; first compound 0.006325 µM): 0.122
relative viability (NCI-H358; first compound 0.02 µM): 0.0708
relative viability (NCI-H460; first compound 0.0002 µM): 0.952
relative viability (NCI-H460; first compound 0.000632 µM): 0.933
relative viability (NCI-H460; first compound 0.002 µM): 0.184
relative viability (NCI-H460; first compound 0.006325 µM): 0.0294
relative viability (NCI-H460; first compound 0.02 µM): 0.022
relative viability (NCI-H661; first compound 0.0002 µM): 0.989
relative viability (NCI-H661; first compound 0.000632 µM): 1.02
relative viability (NCI-H661; first compound 0.002 µM): 0.982
relative viability (NCI-H661; first compound 0.006325 µM): 0.509
relative viability (NCI-H661; first compound 0.02 µM): 0.496
